The assay concerns the target T1, PRKCD (PKC delta) (Homo sapiens, UniProt Q05655).
T1 construct: purchased Thermo Fisher Scientific (Life Technologies) SelectScreen
Kind of assay: SelectScreen Z'LYTE. The assay is classed as biochemical. The method in brief: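 NU5455 was profiled across the SelectScreen Broad panel of kinase activity and binding assays. Z'LYTE reactions such as CSF1R ran at apparent Km ATP, while the Adapta CAMK1 assay used ATP listed as 10. Values are given as percent.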

T1 sequence (Q05655 whole entry): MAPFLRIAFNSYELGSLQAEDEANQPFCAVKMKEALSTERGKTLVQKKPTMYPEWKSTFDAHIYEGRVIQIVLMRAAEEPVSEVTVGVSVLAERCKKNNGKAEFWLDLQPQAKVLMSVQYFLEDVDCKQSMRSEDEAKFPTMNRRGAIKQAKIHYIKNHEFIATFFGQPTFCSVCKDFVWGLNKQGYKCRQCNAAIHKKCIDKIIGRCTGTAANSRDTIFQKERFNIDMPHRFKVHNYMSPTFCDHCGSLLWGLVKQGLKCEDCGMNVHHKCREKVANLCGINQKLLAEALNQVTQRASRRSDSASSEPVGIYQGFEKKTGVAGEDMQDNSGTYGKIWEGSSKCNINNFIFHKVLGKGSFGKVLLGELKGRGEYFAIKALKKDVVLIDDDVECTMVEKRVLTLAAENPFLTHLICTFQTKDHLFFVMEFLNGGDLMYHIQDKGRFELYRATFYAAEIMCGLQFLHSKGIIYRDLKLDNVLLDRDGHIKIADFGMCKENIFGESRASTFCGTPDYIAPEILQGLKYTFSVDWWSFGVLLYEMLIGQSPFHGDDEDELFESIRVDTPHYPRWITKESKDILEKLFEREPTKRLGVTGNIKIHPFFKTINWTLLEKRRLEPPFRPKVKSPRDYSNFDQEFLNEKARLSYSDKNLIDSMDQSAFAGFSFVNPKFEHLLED

What is called inhibition is the share of the control response that was lost under treatment. Low values mean little suppression, high ones strong suppression. As for `CN(C(=O)CN1CCOCC1)c1ccc2sc3c(-c4cccc5c(=O)cc(N6CC7CCC(C6)O7)oc45)cccc3c2c1` [NU5455], 1 µM produced 6.2% inhibition.

(Values after paper PMC6934184, “Selective DNA-PKcs inhibition extends the therapeutic index of localized radiotherapy and chemotherapy” (The Journal of Clinical Investigation, 2019).)
